Assay results from patent publication US8597664B2, “Endogenous adjuvant molecules and uses thereof” (University of Massachusetts, priority 2003, dated 2013).

Assays:
EL4 cells = experiment: Uric acid measurement in the cytosol of treated cells; format: cell-based; settings: 25 μg/ml cycloheximide or 8 μM emetine, after 5 hours; untreated cells below limit of detection
Experimental: EL4 cells (10^8) were resuspended in 5 ml of culture media and incubated at 37° C. for 5 hours after being treated for one hour with emetine^16 or cycloheximide or heat shocked for 20 minutes at 45° C. (see FIG. 3J). 3T3 cells grown in 15 cm dishes were either untreated or exposed to UV light for 5 minutes and incubated in 5 hours. The cells were suspended without washing and disrupted by nitrogen cavitation followed by centrifugation, as described.^16 The resulting supernatants were diluted with 0.1 M borate, and analyzed for uric acid content using a uric acid detection kit (Molecular Probes).
EL4 cells were either heat shocked for 20 minutes at 45° C., incubated with 25 μg/ml cycloheximide, incubated with 8 μM emetine or untreated as control. 3T3 cells were either UV-irradiated or untreated as control. These treatments were previously shown by the instant inventors to increase adjuvant activity. The amount of uric acid in the cytosol of the treated cells was determined after 5 hours of incubation. […] An approximately 4-fold increase in uric acid was also observed when 3T3 cells were treated with UV (FIG. 3J).

[1] = tested on: CD8 T cell (CTL) responses to particulate HIV gp120 antigen; experiment: CTL priming after co-injection of adjuvant with gp120/latex beads (51Cr-release CTL assay); format: in vivo, Balb/c mice
Experimental: Immunization of mice with antigen-polystyrene beads (2-10 μg) +/− cytosolic fractions and assays for the priming of CTL were performed as previously described ^16. Fractions from the GF-250 column were injected without further manipulation, while fractions from all other columns were dried and reconstituted to normal osmolarity before injection. Fractions from 1%-10% of liver cytosol were typically injected into mice. Pooled fractions without adjuvant activity were standardly used as negative controls. For in vitro stimulation, splenocytes from immunized mice were stimulated directly with 10^−8 M peptide (RGPGRAFVTL-SEQ ID NO: 1 or SIINFEKL-SEQ ID NO: 2) and were then assayed as previously described.^16
Each four consecutive fractions (4 minutes) were pooled and tested for their ability to augment the priming of CD8 T cell responses when co-injected with particulate HIV gp120 antigen. After 14 days, splenocytes were harvested from the primed animals and were stimulated ex vivo with either antigen-transfected or peptide-pulsed syngeneic cells. The re-stimulated cells were then assayed for their ability to kill antigen-bearing target cells in a standard ^51Cr-release as say.^16
To further evaluate this point, highly purified uric acid was tested for adjuvant activity. Highly purified uric acid (50 μg), highly purified LMW fraction from a C18 column, or PBS as control were mixed with 5 μg gp120/latex beads in 100 μl of saline and injected into two Balb/c mice. CTL from these mice were assayed for killing of 15.12 (gp120-transfected 3T3) cells (filled triangles), or vector-transfected control 3T3 cells (open squares). Results from individual mice are presented (FIG. 3A-C, wherein % Lysis indicates the degree of cell killing and the E:T ratio indicates the ratio of Effector cell:Target cell, e.g., the ratio of cytotoxic T-cell: antigen positive target cell).
To determine more precisely the amount of uric acid necessary to provide an adjuvant effect in vivo, the amount of uric acid injected into mice was titrated from 2.5-40 μg (in 100 μl; from a concentration of 25-400 μg/ml) and adjuvant activity assayed as described in Example II above. […] This amount of uric acid is produced by about 2×10^6 UV-treated 3T3 cells (See FIG. 3J).
To further evaluate the activity of xanthine crystals, xanthine crystals were tested for adjuvant activity in experiments carried out similarly to those described in Example II above. Highly purified uric acid (500 μg), highly purified xanthine (500 μg), or PBS as control were mixed with 2 μg gp120/latex beads in 100 μl of saline and injected into two Balb/c mice. CTL from these mice were assayed for killing of 15.12 (gp120-transfected 3T3) cells (filled squares). Results from individual mice are presented (FIG. 6A-C), wherein % Lysis indicates the degree of cell killing and the E:T ratio indicates the ratio of Effector cell:Target cell, e.g., the ratio of cytotoxic T-cell:antigen presenting cell.

[2] = Toxicity observed in the Examples; format: in vivo; settings: as used in the Examples
Source text: With respect to potential toxicity of the crystalline adjuvant, local reaction to injections or other morbidity of animals immunized with any adjuvant within the scope of the invention, e.g., a crystalline adjuvant, can be readily determined. With respect to the crystalline adjuvants of the present invention displaying characteristics similar to uric acid or xanthine, significant toxicity is not expected. […] Uric acid and xanthine are normal components of mammals and local administration should be relatively safe. Uric acid is effective when injected subcutaneously, which is an effective and well tolerated immunization protocol. Uric acid and xanthine thus have favorable characteristics for an adjuvant, and crystalline molecules having similar characteristics, such as those described herein, are also expected to behave favorably as immune adjuvants.

[3] = tested on: bone marrow-derived dendritic cells (CD11c+); experiment: Expression of CD80 and CD86 on bone marrow-derived dendritic cells by flow cytometry; format: cell-based, Balb/c mice
Experimental: (§1) Bone marrow was cultured for 7 days in media containing 10 u/ml of both GM-CSF and IL-4, as previously described.^24 Fresh media (50% volume) containing cytokines was added at the 4th day of culture. At day 7, floating cells were removed by aspiration after gentle rocking, and soluble or crystalline uric acid was added. Following a 6 hour incubation, the media was gently removed and replaced with PBS containing either 0.5% heparin (sigma) or 0.5 μM polyvinyl sulfate (100 KD, Sigma) in order to detach bound crystals. Following a 10 minute incubation, cells were gently removed by scraping, washed once in 50 ml of media and 3 times with 50 ml of PBS in order to dissolve any remaining crystals, and then stained and assayed by flow cytometry as previously described.^15 To quantify MSU crystal formation in culture, a parallel set of wells was prepared without dendritic cells, and the crystals harvested by centrifugation, washed with absolute alcohol and dissolved in 0.1N NaOH. The amount of uric acid in the solubilized precipitates was determined by measuring UV absorption at 292 nm against a set of standard uric acid/NaOH solutions.
Accordingly, the effect of uric acid on expression of costimulators on cultured dendritic cells was tested. Uric acid was added to cultures of primary bone-marrow derived dendritic cells. Specifically, bone marrow-derived dendritic cells from Balb/c mice in 6 well plates were untreated (thin continuous line) or incubated with 20 μl of pre-formed MSU crystals (about 1.2 mg/ml final concentration) for 6 hours (heavy dashed lines) or 24 hours (heavy continuous lines). The expression of CD80 and CD86 on CD11c+ cells was then analyzed by flow cytometry.
Based upon the results set forth in Examples I-VI which identify MSU crystals as having adjuvant activity, it was concluded that other crystals with similar properties should display djuvant activity. […] The expression of CD86 on CD11c+ cells was then analyzed by flow cytometry.

[4] = tested on: CD8 T cell (CTL) responses to particulate HIV gp120 antigen; experiment: CTL priming after co-injection with antigen in LPS-nonresponsive TLR4 null mice; format: in vivo, C.C3H lps-d (TLR4-/-) mice; settings: injected together with antigen
Experimental: Lipopolysaccharide (LPS) has potent immunostimulatory activity and is a frequent contaminant of buffers and other reagents. Although every attempt was made to avoid contamination of preparations with endotoxin, it was important to exclude the possibility that LPS was present in the LMW fraction and responsible for the adjuvant activity. Accordingly, similar experiments to those of Example II were carried out except that purified LMW fraction or commercially-obtained highly purified uric acid was injected together with antigen into toll-like receptor 4 (TLR4) null mice, which are nonresponsive to LPS. Specifically, congenic C.C3H lps-d (TLR4−/−) mice were used in place of Balb/c (TLR4+/+) mice.

[5] = reported (ref. 18); cited from earlier work
[6] = Precipitation of uric acid to MSU crystals; format: physicochemical; settings: uric acid 70 μg/ml
Experimental: as §1
As discussed in Example III, LPS has a stimulatory activity and is frequently a contaminant of reagents. Dendritic cells from the TLR4-null mice were examined to verify that LPS was not the source of the observed stimulatory activity. […]

dendritic cells = experiment: Expression of CD80 and CD86 on dendritic cells from TLR4+/+ or TLR4-/- mice; format: cell-based, C57BL/6 (TLR4+/+) or C.C3H lps-d (TLR4-/-) mice; settings: 6 hours
Experimental: as §1
As discussed in Example III, LPS has a stimulatory activity and is frequently a contaminant of reagents. Dendritic cells from the TLR4-null mice were examined to verify that LPS was not the source of the observed stimulatory activity.

## CC[C@H]1CN2CCc3cc(OC)c(OC)cc3[C@@H]2C[C@@H]1C[C@H]1NCCc2cc(OC)c(OC)cc21 [emetine]
EL4 cells
  uric acid in the cytosol of treated EL4 cells: increased dramatically

## C[C@@H]1C[C@@H]([C@H](O)CC2CC(=O)NC(=O)C2)C(=O)[C@@H](C)C1 [cycloheximide]
EL4 cells
  uric acid in the cytosol of treated EL4 cells: increased dramatically

## O=c1[nH]c(=O)c2[nH]cnc2[nH]1 [xanthine]
[1]; 500 μg crystals mixed with 2 μg gp120/latex beads in 100 μl saline
  CTL priming: enhanced CTL priming to a similar degree as the MSU crystals
[2]
  toxicity: have not been observed
[3]; pre-formed crystals at 300 μg/ml final concentration, 6 hours
  expression of CD86 on CD11c+ dendritic cells: increase their expression of CD86 markedly

## O=c1[nH]c(=O)c2[nH]c(=O)[nH]c2[nH]1 [uric acid]
[1]; 50 μg uric acid mixed with 5 μg gp120/latex beads in 100 μl saline
  CTL priming: enhanced CTL priming to a similar degree as the purified LMW fraction
[1]; 10-50 μg of uric acid in 100 μl
  adjuvant effect: strong adjuvant effect
[1]; titrated from 2.5-40 μg in 100 μl
  amount of uric acid providing an adjuvant effect when injected in vivo: about 10 μg
[1]; titrated from 25-400 μg/ml, 100 μl injected
  concentration of uric acid providing an adjuvant effect when injected in vivo: ~100 µg/mL
[2]
  toxicity: have not been observed
[4]
  adjuvant activity in LPS-nonresponsive mice: had adjuvant activity
[3]; 20 μl pre-formed MSU crystals (about 1.2 mg/ml final), 6 or 24 hours
  expression of CD86 on CD11c+ dendritic cells: markedly and rapidly
[3]; uric acid titrated in culture, 24 hours
  correlation of dendritic cell activation (CD86) with crystal formation: stimulated at precisely the concentrations of uric acid that led to crystal formation
[5]
  concentration at which uric acid precipitates in vivo: > 70 µg/mL
[6]
  crystal precipitation in dendritic cell culture: crystals do not precipitate within 6 hours

## O=c1[nH]c(=O)c2[nH]c([O-])nc2[nH]1.[Na+] [MSU crystals, monosodium urate]
[1]; preformed MSU crystals
  activity of preformed crystals injected in vivo: active
Dendritic cells; C.C3H lps-d (TLR4-/-) cells
  stimulatory effect on dendritic cells from TLR4-null mice: the stimulatory effect was also found
Dendritic cells; MSU crystals about 1.2 mg/ml versus 1 μg/ml LPS
  stimulatory effect on dendritic cells (CD80, CD86) compared with LPS: stronger than that induced by high concentrations of LPS
Dendritic cells; preformed MSU crystals about 1.2 mg/ml, soluble uric acid 70 μg/ml
  stimulation of dendritic cells in vitro, preformed crystals versus soluble uric acid: highly stimulatory
